Measured values as given in US20260262643A1, “HERBICIDAL BENZOXAZINES” (FMC CORPORATION, priority 2022, published 2026).

What was measured:
pigweed, palmer [1] = assay: Test C postemergence; format: in vivo, Amaranthus palmeri; settings: 10 days
Text: (§1) Seeds of plant species selected from barnyardgrass (Echinochloa crusgalli), blackgrass (Alopecurus myosuroides), corn (Zea mays), foxtail, giant (giant foxtail, Setaria faberi), green foxtail (Setaria viridis), goosegrass (Eleusine indica), kochia (Bassia scoparia), oat, wild (wild oat, Avena fatua), pigweed, palmer (palmer amaranth, palmer pigweed, Amaranthus palmeri), Pigweed, Redroot (redroot pigweed, Amaranthus retroflexus), ragweed (common ragweed, Ambrosia artemisiifolia), ryegrass, Italian ([…] ryegrass, Lolium multiflorum), soybean (Glycine max), and wheat (Triticum aestivum) were planted into a blend of loam soil and sand and treated preemergence with a directed soil spray using test chemicals formulated in a non-phytotoxic solvent mixture which included a surfactant. At the same time, plants selected from these crops and weed species and also galium (catchweed bedstraw, Galium aparine) and horseweed (Erigeron canadensis) were planted in pots containing the same blend of loam soil and sand and treated with postemergence applications of test chemicals formulated in the same manner. Plants ranged in height from 2 to 10 cm and were in the one- to two-leaf stage for the postemergence treatment. Treated plants and untreated controls were maintained in a greenhouse for 10 days, after which time all treated plants were compared to untreated controls and visually evaluated for injury. Plant response ratings, summarized in Table C, are based on a 0 to 100 scale where 0 is no effect and 100 is complete control. A dash (-) response means no test result.

galium = assay: Test C postemergence; format: in vivo, Galium aparine; settings: 10 days
Text: as §1

barnyardgrass [2] = assay: Test C preemergence; format: in vivo, Echinochloa crusgalli; settings: 0 to 100 scale (0 no effect, 100 complete control); for Plant response rating, Barnyardgrass: Preemergence, visual rating after 10 days
Text: as §1

ragweed [3] = assay: Test C preemergence; format: in vivo, Ambrosia artemisiifolia; settings: 0 to 100 scale (0 no effect, 100 complete control); for Plant response rating, Ragweed: Preemergence, visual rating after 10 days
Text: as §1

kochia [4] = assay: Test C postemergence; format: in vivo, Bassia scoparia; settings: 10 days
Text: as §1

barnyardgrass [5] = assay: Test C postemergence; format: in vivo, Echinochloa crusgalli
Text: as §1

kochia [6] = assay: Test C preemergence; format: in vivo, Bassia scoparia; settings: 0 to 100 scale (0 no effect, 100 complete control); for Plant response rating, Kochia: Preemergence, visual rating after 10 days
Text: as §1

horseweed = assay: Test C postemergence; format: in vivo, Erigeron canadensis; settings: 10 days
Text: as §1

ryegrass, Italian [7] = assay: Test C preemergence; format: in vivo, Lolium multiflorum; settings: 0 to 100 scale (0 no effect, 100 complete control); for Plant response rating, Ryegrass, Italian: Preemergence, visual rating after 10 days
Text: as §1

green foxtail [8] = assay: Test C preemergence; format: in vivo, Setaria viridis; settings: 0 to 100 scale (0 no effect, 100 complete control); for Plant response rating, Foxtail, Green: Preemergence, visual rating after 10 days
Text: as §1

ragweed [9] = assay: Test C postemergence; format: in vivo, Ambrosia artemisiifolia; settings: 10 days
Text: as §1

green foxtail [10] = assay: Test C postemergence; format: in vivo, Setaria viridis; settings: Postemergence, 1000 g ai/ha, 10 days, visual 0 to 100 scale (0 no effect, 100 complete control)
Text: as §1

ryegrass, Italian [11] = assay: Test C postemergence; format: in vivo, Lolium multiflorum; settings: 10 days
Text: as §1

blackgrass [12] = assay: Test C preemergence; format: in vivo, Alopecurus myosuroides; settings: 0 to 100 scale (0 no effect, 100 complete control); for Plant response rating, Blackgrass: Preemergence, visual rating after 10 days
Text: as §1

blackgrass [13] = assay: Test C postemergence; format: in vivo, Alopecurus myosuroides; settings: 10 days
Text: as §1

pigweed, palmer [14] = assay: Test C preemergence; format: in vivo, Amaranthus palmeri; settings: 0 to 100 scale (0 no effect, 100 complete control); for Plant response rating, Pigweed, Palmer: Preemergence, visual rating after 10 days
Text: as §1

oat, wild [15] = assay: Test C preemergence; format: in vivo, Avena fatua; settings: 0 to 100 scale (0 no effect, 100 complete control)
Text: as §1

soybean [16] = assay: Test C preemergence; format: in vivo, Glycine max; settings: 0 to 100 scale (0 no effect, 100 complete control)
Text: as §1

soybean [17] = assay: Test C postemergence; format: in vivo, Glycine max; settings: 10 days
Text: as §1

wheat [18] = assay: Test C preemergence; format: in vivo, Triticum aestivum; settings: 0 to 100 scale (0 no effect, 100 complete control)
Text: as §1

wheat [19] = assay: Test C postemergence; format: in vivo, Triticum aestivum; settings: 10 days
Text: as §1

corn [20] = assay: Test C postemergence; format: in vivo, Zea mays; settings: 10 days
Text: as §1

oat, wild [21] = assay: Test C postemergence; format: in vivo, Avena fatua; settings: 10 days
Text: as §1

corn [22] = assay: Test C preemergence; format: in vivo, Zea mays; settings: 0 to 100 scale (0 no effect, 100 complete control)
Text: as §1

[23] = Postemergence, 1000 g ai/ha, visual 0 to 100 scale (0 no effect, 100 complete control)
[24] = 125 g ai/ha, postemergence, 0 to 100 scale, 0 no effect, 100 complete control
[25] = Postemergence, 500 g ai/ha, visual 0 to 100 scale (0 no effect, 100 complete control)
[26] = Preemergence, 500 g ai/ha, visual rating after 10 days
[27] = Test C, preemergence, 125 g ai/ha
[28] = Postemergence, 1000 g ai/ha, 0 to 100 scale, 0 no effect, 100 complete control

C[C@H]1CN(C(=O)c2cccc(-c3ccc(Cl)nc3)c2)c2cccc(Cl)c2O1 [Compound 383]
Plant response rating, Pigweed, Palmer (pigweed, palmer [1]; [23]): 50
Plant response rating, Galium (galium; [23]): 0
Plant response rating, Barnyardgrass (barnyardgrass [2]; 1000 g ai/ha): 0
Plant response rating, Ragweed (ragweed [3]; 1000 g ai/ha): 0
Plant response rating, Kochia (kochia [4]; [23]): 50
Plant response rating, Barnyardgrass (barnyardgrass [5]; Postemergence, 1000 g ai/ha, 10 days, visual 0 to 100 scale (0 no effect, 100 complete control)): 10
Plant response rating, Kochia (kochia [6]; 1000 g ai/ha): 0
Plant response rating, Horseweed (horseweed; [23]): 0
Plant response rating, Ryegrass, Italian (ryegrass, Italian [7]; 1000 g ai/ha): 0
Plant response rating, Foxtail, Green (green foxtail [8]; 1000 g ai/ha): 20
Plant response rating, Ragweed (ragweed [9]; [23]): 0
Plant response rating, Foxtail, Green (green foxtail [10]): 0
Plant response rating, Ryegrass, Italian (ryegrass, Italian [11]; [23]): 0
Plant response rating, Blackgrass (blackgrass [12]; 1000 g ai/ha): 0
Plant response rating, Blackgrass (blackgrass [13]; [23]): 10
Plant response rating, Pigweed, Palmer (pigweed, palmer [14]; 1000 g ai/ha): 10

Cc1cccc2c1O[C@@H](C)CN2C(=O)c1cccc(-n2cnc(N(C)C)n2)c1 [Compound 226]
Plant response rating, Pigweed, Palmer (pigweed, palmer [1]; [24]): 40
Plant response rating, Pigweed, Palmer (pigweed, palmer [1]; [25]): 80
Plant response rating, Galium (galium; [24]): 80
Plant response rating, Galium (galium; [25]): 100
Plant response rating, Oat, Wild (oat, wild [15]; [26]): 60
Oat, Wild plant response rating (oat, wild [15]; [27]): 40
Plant response rating, Soybean (soybean [16]; [26]): 30
Soybean plant response rating (soybean [16]; [27]): 20
Plant response rating, Barnyardgrass (barnyardgrass [2]; 500 g ai/ha): 90
Barnyardgrass plant response rating (barnyardgrass [2]; [27]): 50
Plant response rating, Soybean (soybean [17]; [24]): 100
Plant response rating, Soybean (soybean [17]; [25]): 100
Plant response rating, Wheat (wheat [18]; [26]): 10
Wheat plant response rating (wheat [18]; [27]): 0
Plant response rating, Ragweed (ragweed [3]; 500 g ai/ha): 20
Ragweed plant response rating (ragweed [3]; [27]): 20
Plant response rating, Kochia (kochia [4]; [24]): 70
Plant response rating, Kochia (kochia [4]; [25]): 80
Plant response rating, Barnyardgrass (barnyardgrass [5]; 125 g ai/ha, postemergence, 10 days, 0 to 100 scale, 0 no effect, 100 complete control): 50
Plant response rating, Barnyardgrass (barnyardgrass [5]; Postemergence, 500 g ai/ha, 10 days, visual 0 to 100 scale (0 no effect, 100 complete control)): 80
Plant response rating, Kochia (kochia [6]; 500 g ai/ha): 90
Kochia plant response rating (kochia [6]; [27]): 50
Plant response rating, Horseweed (horseweed; [24]): 10
Plant response rating, Horseweed (horseweed; [25]): 30
Plant response rating, Ryegrass, Italian (ryegrass, Italian [7]; 500 g ai/ha): 70
Ryegrass, Italian plant response rating (ryegrass, Italian [7]; [27]): 70
Plant response rating, Foxtail, Green (green foxtail [8]; 500 g ai/ha): 100
Foxtail, Green plant response rating (green foxtail [8]; [27]): 100
Plant response rating, Ragweed (ragweed [9]; [24]): 30
Plant response rating, Ragweed (ragweed [9]; [25]): 60
Plant response rating, Ryegrass, Italian (ryegrass, Italian [11]; [24]): 50
Plant response rating, Ryegrass, Italian (ryegrass, Italian [11]; [25]): 90
Plant response rating, Blackgrass (blackgrass [12]; 500 g ai/ha): 60
Blackgrass plant response rating (blackgrass [12]; [27]): 30
Plant response rating, Wheat (wheat [19]; [24]): 10
Plant response rating, Wheat (wheat [19]; [25]): 30
Plant response rating, Corn (corn [20]; [24]): 20
Plant response rating, Corn (corn [20]; [25]): 60
Plant response rating, Blackgrass (blackgrass [13]; [24]): 60
Plant response rating, Blackgrass (blackgrass [13]; [25]): 90
Plant response rating, Oat, Wild (oat, wild [21]; [24]): 10
Plant response rating, Oat, Wild (oat, wild [21]; [25]): 60
Plant response rating, Pigweed, Palmer (pigweed, palmer [14]; 500 g ai/ha): 90
Pigweed, Palmer plant response rating (pigweed, palmer [14]; [27]): 50
Plant response rating, Corn (corn [22]; [26]): 0
Corn plant response rating (corn [22]; [27]): 0

Cc1cc(-c2cccc(C(=O)N3C[C@H](C)Oc4c(C)cccc43)c2)cs1 [Compound 246]
Plant response rating, Pigweed, Palmer (pigweed, palmer [1]; [23]): 0
Plant response rating, Galium (galium; [23]): 0
Plant response rating, Barnyardgrass (barnyardgrass [2]; 1000 g ai/ha): 0
Plant response rating, Kochia (kochia [4]; [23]): 20
Plant response rating, Barnyardgrass (barnyardgrass [5]; [28]): 0
Plant response rating, Kochia (kochia [6]; 1000 g ai/ha): 0
Plant response rating, Horseweed (horseweed; [23]): 30
Plant response rating, Ryegrass, Italian (ryegrass, Italian [7]; 1000 g ai/ha): 30
Plant response rating, Foxtail, Green (green foxtail [8]; 1000 g ai/ha): 0
Plant response rating, Ragweed (ragweed [9]; [23]): 30
Plant response rating, Foxtail, Green (green foxtail [10]): 0
Plant response rating, Ryegrass, Italian (ryegrass, Italian [11]; [23]): 0
Plant response rating, Blackgrass (blackgrass [12]; 1000 g ai/ha): 0
Plant response rating, Blackgrass (blackgrass [13]; [23]): 0
Plant response rating, Pigweed, Palmer (pigweed, palmer [14]; 1000 g ai/ha): 0

C[C@H]1CN(C(=O)c2cccc(-n3cccc3)c2)c2cccc(Cl)c2O1 [Compound 222]
Plant response rating, Pigweed, Palmer (pigweed, palmer [1]; [23]): 60
Plant response rating, Barnyardgrass (barnyardgrass [2]; 1000 g ai/ha): 50
Plant response rating, Ragweed (ragweed [3]; 1000 g ai/ha): 0
Plant response rating, Kochia (kochia [4]; [23]): 60
Plant response rating, Barnyardgrass (barnyardgrass [5]; [28]): 20
Plant response rating, Kochia (kochia [6]; 1000 g ai/ha): 20
Plant response rating, Horseweed (horseweed; [23]): 0
Plant response rating, Ryegrass, Italian (ryegrass, Italian [7]; 1000 g ai/ha): 70
Plant response rating, Foxtail, Green (green foxtail [8]; 1000 g ai/ha): 100
Plant response rating, Ragweed (ragweed [9]; [23]): 0
Plant response rating, Foxtail, Green (green foxtail [10]): 40
Plant response rating, Ryegrass, Italian (ryegrass, Italian [11]; [23]): 50
Plant response rating, Blackgrass (blackgrass [12]; 1000 g ai/ha): 70
Plant response rating, Blackgrass (blackgrass [13]; [23]): 50
Plant response rating, Pigweed, Palmer (pigweed, palmer [14]; 1000 g ai/ha): 50

Cc1csc(-c2cccc(C(=O)N3C[C@H](C)Oc4c(C)cccc43)c2)c1 [Compound 245]
Plant response rating, Pigweed, Palmer (pigweed, palmer [1]; [23]): 0
Plant response rating, Galium (galium; [23]): 0
Plant response rating, Barnyardgrass (barnyardgrass [2]; 1000 g ai/ha): 20
Plant response rating, Kochia (kochia [4]; [23]): 0
Plant response rating, Barnyardgrass (barnyardgrass [5]; [28]): 0
Plant response rating, Kochia (kochia [6]; 1000 g ai/ha): 0
Plant response rating, Horseweed (horseweed; [23]): 30
Plant response rating, Ryegrass, Italian (ryegrass, Italian [7]; 1000 g ai/ha): 60
Plant response rating, Foxtail, Green (green foxtail [8]; 1000 g ai/ha): 30
Plant response rating, Ragweed (ragweed [9]; [23]): 10
Plant response rating, Foxtail, Green (green foxtail [10]): 0
Plant response rating, Ryegrass, Italian (ryegrass, Italian [11]; [23]): 0
Plant response rating, Blackgrass (blackgrass [12]; 1000 g ai/ha): 0
Plant response rating, Blackgrass (blackgrass [13]; [23]): 0
Plant response rating, Pigweed, Palmer (pigweed, palmer [14]; 1000 g ai/ha): 20

Cc1cccc2c1O[C@@H](C)CN2C(=O)c1cccc(-c2cn(C)nn2)c1 [Compound 247]
Plant response rating, Pigweed, Palmer (pigweed, palmer [1]; [23]): 10
Plant response rating, Galium (galium; [23]): 20
Plant response rating, Barnyardgrass (barnyardgrass [2]; 1000 g ai/ha): 0
Plant response rating, Ragweed (ragweed [3]; 1000 g ai/ha): 0
Plant response rating, Kochia (kochia [4]; [23]): 0
Plant response rating, Barnyardgrass (barnyardgrass [5]; [28]): 10
Plant response rating, Kochia (kochia [6]; 1000 g ai/ha): 0
Plant response rating, Horseweed (horseweed; [23]): 20
Plant response rating, Ryegrass, Italian (ryegrass, Italian [7]; 1000 g ai/ha): 30
Plant response rating, Foxtail, Green (green foxtail [8]; 1000 g ai/ha): 0
Plant response rating, Ragweed (ragweed [9]; [23]): 0
Plant response rating, Foxtail, Green (green foxtail [10]): 30
Plant response rating, Ryegrass, Italian (ryegrass, Italian [11]; [23]): 0
Plant response rating, Blackgrass (blackgrass [12]; 1000 g ai/ha): 0
Plant response rating, Blackgrass (blackgrass [13]; [23]): 0
